The values below come from US20140287931A1, “METHODS AND COMPOSITIONS FOR PREDICTING RESISTANCE TO ANTICANCER TREATMENT” (Stichting het Nederlands Kanker Instituut - Antoni van …, priority 2011, published 2014).

Entries after “also recorded” stand apart in the source; their conditions may differ. Where two headings read alike, the source gives them in different places.

The test system of one data set is phospho-AKT. Put plainly: Western blotting of phospho-AKT in H3122 cells. The format is cell-based, human. Particulars: H3122 shSMARCE1 cells versus controls; 20 nM NVP-TAE684, 24 hours. Here is the method: (B) SMARCE1^KD cells have elevated phospho-AKT levels in EML4-ALK cells. H3122 cells expressing controls (pRS or shGFP) or shSMARCE1 vectors were gown in the absence or presence of 20 nM NVP-TAE684 for 24 hours and the cell lysates were harvested for western blotting analysis. (C) MED12^KD cells have elevated phospho-AKT levels in EGFR mutant cells. PC9 cells expressing controls (pRS or shGFP) or shSMARCE1 vectors were gown in the absence or presence of 25 nM Gefitinib for 8 hours and the cell lysates were harvested for western blotting analysis.
Given that loss of MED2 or SMARCE1 causes resistance to multiple tyrosine kinase inhibitors in NSCLC cell lines, Applicants asked whether the activity of downstream components of receptor tyrosine kinase signaling is altered. AKT is a key downstream component and its phosphorylation status positively correlates with its activation that can be determined by specific antibodies against the phosphorylated form of AKT. 1-13122 cells were infected with two independent controls shRNA vectors or shRNAs targeting either MED12 or SMARCE1 and confirmed loss of MED112 or SMARCE1 protein by immunoblotting (FIGS. 15A and B). The cells were also treated of left untreated with the ALK inhibitor NVP-TAE684, to address the activation status of AKT in the presence or absence of the inhibitor. […]

For data set [1], the system named is human NSCLC cell lines that harbor EML4-ALK translocations. Particulars: cited from earlier work.
For the next data set, the system named is H3122 cells. Put plainly: Colony formation assay in H3122 cells with or without shRNA knockdown. In kind it is cell-based, human. Particulars: for sensitivity to ALK inhibitors after restoration of Med12: H3122 MED12 knockdown cells (shMED12_TRC#3, #5) plus mouse Med12 cDNA; for sensitivity to ALK inhibitors after restoration of Med12 / sensitivity to ALK inhibitors after restoration of SMARCE1: 300 nM Crizotinib or 2.5 nM NVP-TAE684; for sensitivity to ALK inhibitors after restoration of SMARCE1: H3122 SMARCE1 knockdown cells plus SMARCE1-ND; for resistance to ALK inhibitors on suppression of ARID1A or SMARCE1, colony formation: H3122 expressing independent shARID1A or shSMARCE1 vectors; for resistance to ALK inhibitors on suppression of ARID1A or SMARCE1, colony formation / resistance to ALK inhibitors on suppression of MED12, colony formation / resistance to ALK inhibitors, colony formation: 300 nM Crizotinib or 2.5 nM NVP-TAE684, 4 weeks; for resistance to ALK inhibitors on suppression of MED12, colony formation: H3122 expressing independent shMED12 vectors (pRS #3; pLKO TRC#2, #3, #5); for resistance to ALK inhibitors, colony formation: H3122 expressing library shMED12#1, shMED12#2, shARID1A or shSMARCE1.

The test system of data set [2] is SKBR3 breast cancer cells. Put plainly: shRNA bar code screen in SKBR3 breast cancer cells. In kind it is cell-based.
Data set [3] deals with HCC 1954 breast cancer cells. Kind of data set: shRNA bar code screen in HCC 1954 breast cancer cells. In kind it is cell-based.
Data set [4] deals with H1993 (MET-amplified) cells. Particulars: 200 nM Crizotinib; for sensitivity to MET inhibitor after restoration of SMARCE1: H1993 SMARCE1-knockdown cells plus SMARCE1-ND; for resistance to MET inhibitor on suppression of ARID1A: H1993 expressing shARID1A #1 and #2, 4 weeks.
Data set [5] has as its system EBC-1 (MET-amplified) cells. Particulars: 200 nM Crizotinib; for sensitivity to MET inhibitor after restoration of SMARCE1: EBC-1 SMARCE1-knockdown cells plus SMARCE1-ND. Here is the method: (§1) Single cell suspensions of the lung cancer cell lines were seeded into 6-well plates (2×10^4 cells/well) and cultured both in the absence and presence of the ALK inhibitors. At the endpoints of colony formation assays, cells were fixed with formaldehyde, stained with crystal violet (0,1% w/v) and photographed. All relevant assays were performed independently at least three times. All knockdown and overexpression experiments were done by retroviral or lentiviral infections.
(§2) Subclones of each NSCLC cell line expressing the murine ecotropic receptor were generated and used for all experiments shown. Retroviral infections were performed using Phoenix cells as producers of retroviral supernatants using 2.5-3 μg of plasmid DNA as described (http://www(dot)stanford(dot)edu/group/nolan/retroviralsystems/phx(dot)html). […] For transfections of Phoenix cells, Applicants seeded 1.0×10^6 cells in a 6-well dish in the morning and transfected the cells 6-8 hours later. Cells were refreshed the next day in the morning and afternoon. Viral supernatant was harvested the day thereafter for infections of the target cells. […] Infected NSCLC cells were selected for successful retroviral integration using 2 μg/ml of puromycin.

Another data set deals with DAB2IP mRNA. Put plainly: DAB2IP knockdown by qRT-PCR in PC9 cells. The format is cell-based, human. As for the experimental part:
QRT-PCR assays were carried out to measure mRNA levels of genes using 7500 Fast Real-Time PCR System (Applied Biosystems). Total RNA was isolated using Trizol (Invitrogen) and 1 μg of total RNA was used for cDNA synthesis using superscrpipt 11 reverse transcriptase (Invitrogen) and random hexamer primers (Invitrogen). Relative mRNA levels of each gene shown were normalized to the expression of the house keeping gene GAPDH. The sequences of the primers for assays using SYBR® Green master mix (Roche) are listed below (h, human: m, mouse).

A further data set has as its system MCF7 breast cancer cells. Put plainly: Colony formation assay in MCF7 cells with ARID1A knockdown. The format is cell-based. Particulars: 20 and 40 nM AZD8055, 4 weeks. As for the experimental part: (§3) (B) Validation of independent shRNAs (in pLKO vector) targeting ARID1A in T47D breast cancer cells. TIhe functional phenotypes of non-overlapping shARID1A vectors are indicated by the colony formation assay in 10 and 20 nM small molecule mTOR inhibitor AZD8055. The cells were fixed, stained and photographed after 2 weeks (untreated) or 4 weeks (inhibitor treatment). Ectopic expression of a mutant of cyclin DI (pBpDITA) served as a control in the experiment. (C) Validation of independent shRNAs (in pLKO vector) targeting ARID1A in MCF7 breast cancer cells. The functional phenotypes of non-overlapping shARIDJA vectors are indicated by the colony formation assay in 20 and 40 nM small molecule mTOR inhibitor AZD8055. The cells were fixed, stained and photographed after 2 weeks (untreated) or 4 weeks (inhibitor treatment). (D). Quantification of ARID1A mRNA levels by QRT-PCR after knockdown of ARID1A in MCF7 breast cancer cells.

The subject of another data set is T47D breast cancer cells. Put plainly: Colony formation assay in T47D cells with ARID1A knockdown. Particulars: 10 and 20 nM AZD8055, 4 weeks. In kind it is cell-based. Here is the method: as §3
Data set [6] concerns BT474 breast cancer cells. Kind of data set: Colony formation assay in BT474 cells with ARID1A knockdown. In kind it is cell-based, human. Particulars: 25 nM AZD8055 or 2 ug/ml trastuzumab, 4 weeks. From the text: The cells were fixed, stained and photographed after 2 weeks (untreated) or 4 weeks (inhibitor treatment).
Data set [7] has as its system PI3K pathway members (p473-AKT, p235/236-S6RP). Put plainly: Immunoblot of PI3K pathway members in BT474 cells. The format is cell-based, human. Particulars: BT474 expressing three independent shARID1A vectors versus shctrl; increasing amounts of AZD8055, three hours. Here is the method: BT474 cells stably expressing either shctrl, shTSC2 or three independent shARID1A vectors were exposed to increasing amounts of the mTOR inhibitor AZD8055. After three hours, cell lysates were prepared and PI3K pathway members were immunoblotted.

In data set [8] the test system is PC9 cells (EGFRdelE746-A750). In kind it is cell-based, human. As for the experimental part:
as §1, §2

With `COc1cc(N2CCC(N3CCN(C)CC3)CC2)ccc1Nc1ncc(Cl)c(Nc2ccccc2S(=O)(=O)C(C)C)n1` [NVP-TAE684], the “phosphorylated AKT levels in the presence of inhibitor” value with phospho-AKT is “maintained higher levels”. Besides, the “inhibition of EML4-ALK NSCLC cell lines” value in data set [1] is “potently inhibit”. In the data set with H3122 cells, the “sensitivity to ALK inhibitors after restoration of Med12” value is on record as “re-sensitizes”; the “sensitivity to ALK inhibitors after restoration of SMARCE1” value is reported as “re-sensitizes”; the “resistance to ALK inhibitors on suppression of ARID1A or SMARCE1, colony formation” value was “confers drug resistance”; the “resistance to ALK inhibitors on suppression of MED12, colony formation” value is on record as “confers drug resistance”. The “resistance to ALK inhibitors, colony formation” value in the data set on H3122 cells was “confer resistance”.

As to `Oc1cccc(-c2nc(N3CCOCC3)c3oc4ncccc4c3n2)c1` [PI-103], the “resistance on knockdown of ARID1A (SMARCF1)” value in data set [2] was “conferred resistance”.

As for `Cn1c(=O)n(-c2ccc(C(C)(C)C#N)cc2)c2c3cc(-c4cnc5ccccc5c4)ccc3ncc21` [NVPBEZ235], the “resistance on knockdown of ARID1A” value in data set [3] is “conferred resistance”.

For `C[C@@H](Oc1cc(-c2cnn(C3CCNCC3)c2)cnc1N)c1c(Cl)ccc(F)c1Cl` [crizotinib], in [4], the “sensitivity to MET inhibitor after restoration of SMARCE1” value (shortened to “sensitivity to MET inhibitor”) is given as “restored the sensitivity” and the “resistance to MET inhibitor on suppression of ARID1A” value is on record as “conferred resistance”. Moreover, in data set [4] (listed as Crizotinib), the “sensitivity to MET inhibitor” value was “re-sensitizes” and the “resistance to MET inhibitor on suppression of ARID1A” value is reported as “are resistance”. The “resistance to MET inhibitor on suppression of SMARCE1” value in data set [4] (H1993 expressing shSMARCE1#1 and #2) is reported as “conferred resistance”. In the data set with H3122 cells, the “sensitivity to ALK inhibitors after restoration of Med12” value was “re-sensitizes”; the “sensitivity to ALK inhibitors after restoration of SMARCE1” value is recorded as “re-sensitizes”; the “resistance to ALK inhibitors on suppression of ARID1A or SMARCE1, colony formation” value is on record as “confers drug resistance”; the “resistance to ALK inhibitors on suppression of MED12, colony formation” value is reported as “confers drug resistance”. Besides, the “resistance to ALK inhibitors, colony formation” value in the data set on H3122 cells is “confer resistance”. For the same molecule, in data set [5], the “sensitivity to MET inhibitor” value is given as “restored the sensitivity”. Besides, the “sensitivity to MET inhibitor” value in [5] (listed as Crizotinib) is listed as “re-sensitizes”. For the same molecule, the “resistance to MET inhibitor on suppression of SMARCE1” value in [5] (EBC-1 expressing shSMARCE1#1 and #2) was “conferred resistance”.

On to “shDAB2IP#5: lentiviral pLKO shRNA vector from the TRC library targeting DAB2IP, sequence GCACATCACTAACCACTACCT (pLKO lentiviral vector)”, for which the “knockdown of DAB2IP” value in the data set on DAB2IP mRNA is on record as “failed to induce a knockdown”.

For the molecule `COc1ccc(-c2ccc3c(N4CCOC[C@@H]4C)nc(N4CCOC[C@@H]4C)nc3n2)cc1CO` [AZD8055], the “resistance on suppression of ARID1A, colony formation” value with MCF7 breast cancer cells was “conferred resistance; also recorded: confers resistance”. Besides, in the data set with T47D breast cancer cells, the “resistance on suppression of ARID1A, colony formation” value is “conferred resistance; also recorded: confers resistance”. Also, the “resistance on knockdown of ARID1A, colony formation” value in data set [6] was “conferred resistance”. Also, in data set [7], the “phosphorylated AKT (p473-AKT) levels in the presence of inhibitor” value was “maintained higher levels” and the “phosphorylated S6RP (p235/236-S6RP) levels in the presence of inhibitor” value is “maintained higher levels”.

“shDAB2IP#2: lentiviral pLKO shRNA vector from the TRC library targeting DAB2IP, sequence GACTCCAAACAGAAGATCATT (pLKO lentiviral vector)”: the “toxicity of shRNA vector” value in [8] is on record as “exhibited toxicity”.
